Measured values as given in US10399948B2, “Negative allosteric modulators of metabotropic glutamate receptor 3” (Vanderbilt University, priority 2015, dated 2019).
Like-named read-outs stand apart in the source and are kept apart here.

What was measured:
Format in all cases: cell-based
rat mGlu3 = rat mGlu3 (Rattus norvegicus (Rat), UniProt P31422); experiment: mGlu3 Ca2+ flux assay; conditions: for IC50: NAM, glutamate EC80, >10,000 = decrease without plateau, >30,000 = no measurable activity; for remaining activity at 30 µM: response at 30 μM test compound as percentage of maximal response to glutamate, read-out: rat mGlu3 Glu max (%)
Method: Gα15/TREx cells stably expressing rat mGlu3 were plated in black-walled, clear-bottomed, poly-D-lysine coated 384-well plates in 20 μL of assay medium (DMEM containing 10% dialyzed FBS, 20 mM HEPES, 25 ng/mL tetracycline, 100 units/mL penicillin/streptomycin plus 250 ng/mL Fungizone, and 1 mM sodium pyruvate) at a density of 15K cells/well. The cells were grown overnight at 37° C. in the presence of 5% CO2. […] Dye was removed, 20 μL of assay buffer was added, and the plate was incubated for 10 minutes at room temperature.
(§1) Ca^2+ flux was measured using the Functional Drug Screening System (FDSS7000, Hamamatsu, Japan). After establishment of a fluorescence baseline for about 3 seconds, the compounds of the present invention were added to the cells, and the response in cells was measured. 2.3 minutes later an EC20 concentration of the mGlu3 receptor agonist glutamate was added to the cells, and the response of the cells was measured for 1.9 minutes; an EC80 concentration of agonist was added and readings taken for an additional 1.7 minutes. All test compounds were dissolved and diluted to a concentration of 10 mM in 100% DMSO. Compounds were then serially diluted 1:3 in DMSO into 10 point concentration response curves, transferred to daughter plates, and further diluted into assay buffer to a 2× stock. Calcium fluorescence measures were recorded as fold over basal fluorescence; raw data was then normalized to the maximal response to glutamate.
(§2) The raw data file containing all time points was used as the data source in the analysis template. This was saved by the FDSS as a tab-delimited text file. Data were normalized using a static ratio function (F/F0) for each measurement of the total 360 values per well divided by each well's initial value. Data were then reduced to peak amplitudes (Max−Initial Min) using a time range that starts approximately 3 seconds prior to the glutamate EC80 addition and continues for approximately 90 seconds. This is sufficient time to capture the peak amplitude of the cellular calcium response. Individual amplitudes were expressed as % EMax by multiplying each amplitude by 100 and then dividing the product by the mean of the amplitudes derived from the glutamate ECMax-treated wells. EC50 values for test compounds were generated by fitting the normalized values versus the log of the test compound concentration (in mol/L) using a 4 parameter logistic equation where none of the parameters were fixed. Each of the three values collected at each concentration of test compound were weighted evenly.

rat mGlu2 = rat mGlu2 (Rattus norvegicus (Rat), UniProt P31421); experiment: mGlu2 Ca2+ flux assay; conditions: NAM, glutamate EC80; >30,000 = no measurable activity
Method: (§3) Gα15 HEK293 cells stably expressing rat mGlu2 were plated in black-walled, clear-bottomed, poly-D-lysine coated 384-well plates in 20 μL of assay medium (DMEM containing 10% dialyzed FBS, 20 mM HEPES, and 1 mM sodium pyruvate) at a density of 12K cells/well. The cells were grown overnight at 37° C. in the presence of 5% CO2. The next day, medium was removed and the cells incubated with 20 μL of […] Fluo-4, AM prepared as a 2.3 mM stock in DMSO and mixed in a 1:1 ratio with 10% (w/v) pluronic acid F-127 and diluted in assay buffer (Hank's balanced salt solution, 20 mM HEPES, and 2.5 mM probenecid) for 45 minutes at 37° C. Dye was removed, 20 μL of assay buffer was added, and the plate was incubated for 5 minutes at room temperature.
as §1, with “mGlu2” for “mGlu3”
as §2, with “ECMax” for “EMax”, “IC50” for “EC50”

rat mGlu5 = rat mGlu5 (Rattus norvegicus (Rat), UniProt P31424); experiment: mGlu5 Ca2+ flux assay; conditions: for activity at 30 µM: read-out: rat mGlu5 Glu max (%)
Method: as §3, with “HEK 293A cells stably” for “Gα15 HEK293 cells stably”, “expressing rat mGlu5 were plated” for “expressing rat mGlu2 were plated”, “mM HEPES, 100 units/mL penicillin/streptomycin plus 250 ng/mL Fungizone, and 1” for “mM HEPES, and 1”, “density of 20K cells/well. The” for “density of 12K cells/well. The”
as §1, with “mGlu5” for “mGlu3”
as §2, with “EC20/EC80” for “EC80”, “90-120” for “90”

[1] = PAM, glutamate EC20, >10,000 = no plateau, >30,000 = no measurable activity, read-out: rat mGlu5 EC50 or IC50
[2] = PAM, response at 30 μM test compound as percentage of maximal response to glutamate

Chain of rat mGlu2 (P31421 19-872): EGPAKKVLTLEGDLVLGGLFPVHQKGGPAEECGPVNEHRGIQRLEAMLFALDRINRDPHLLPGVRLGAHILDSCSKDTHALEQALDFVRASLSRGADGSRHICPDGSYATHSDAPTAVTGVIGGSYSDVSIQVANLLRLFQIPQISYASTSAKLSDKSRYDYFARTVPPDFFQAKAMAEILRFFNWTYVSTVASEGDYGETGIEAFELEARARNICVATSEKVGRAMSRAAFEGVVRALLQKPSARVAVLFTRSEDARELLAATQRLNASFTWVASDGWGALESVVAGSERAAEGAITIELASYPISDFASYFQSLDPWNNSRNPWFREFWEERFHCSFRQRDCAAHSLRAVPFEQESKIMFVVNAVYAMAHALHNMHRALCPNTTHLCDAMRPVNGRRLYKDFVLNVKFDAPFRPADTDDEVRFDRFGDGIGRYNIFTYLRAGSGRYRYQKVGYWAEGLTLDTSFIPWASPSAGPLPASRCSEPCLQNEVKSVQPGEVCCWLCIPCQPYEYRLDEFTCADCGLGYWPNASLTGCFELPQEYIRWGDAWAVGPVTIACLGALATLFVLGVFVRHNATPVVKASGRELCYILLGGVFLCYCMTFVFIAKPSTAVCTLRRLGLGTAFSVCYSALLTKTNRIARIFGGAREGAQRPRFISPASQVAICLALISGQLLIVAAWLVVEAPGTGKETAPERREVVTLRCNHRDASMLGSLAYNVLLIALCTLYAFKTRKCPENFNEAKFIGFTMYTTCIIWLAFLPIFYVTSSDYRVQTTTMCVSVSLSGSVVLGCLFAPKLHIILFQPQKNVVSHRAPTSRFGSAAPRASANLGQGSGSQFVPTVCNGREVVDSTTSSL
Chain of rat mGlu3 (P31422 23-879): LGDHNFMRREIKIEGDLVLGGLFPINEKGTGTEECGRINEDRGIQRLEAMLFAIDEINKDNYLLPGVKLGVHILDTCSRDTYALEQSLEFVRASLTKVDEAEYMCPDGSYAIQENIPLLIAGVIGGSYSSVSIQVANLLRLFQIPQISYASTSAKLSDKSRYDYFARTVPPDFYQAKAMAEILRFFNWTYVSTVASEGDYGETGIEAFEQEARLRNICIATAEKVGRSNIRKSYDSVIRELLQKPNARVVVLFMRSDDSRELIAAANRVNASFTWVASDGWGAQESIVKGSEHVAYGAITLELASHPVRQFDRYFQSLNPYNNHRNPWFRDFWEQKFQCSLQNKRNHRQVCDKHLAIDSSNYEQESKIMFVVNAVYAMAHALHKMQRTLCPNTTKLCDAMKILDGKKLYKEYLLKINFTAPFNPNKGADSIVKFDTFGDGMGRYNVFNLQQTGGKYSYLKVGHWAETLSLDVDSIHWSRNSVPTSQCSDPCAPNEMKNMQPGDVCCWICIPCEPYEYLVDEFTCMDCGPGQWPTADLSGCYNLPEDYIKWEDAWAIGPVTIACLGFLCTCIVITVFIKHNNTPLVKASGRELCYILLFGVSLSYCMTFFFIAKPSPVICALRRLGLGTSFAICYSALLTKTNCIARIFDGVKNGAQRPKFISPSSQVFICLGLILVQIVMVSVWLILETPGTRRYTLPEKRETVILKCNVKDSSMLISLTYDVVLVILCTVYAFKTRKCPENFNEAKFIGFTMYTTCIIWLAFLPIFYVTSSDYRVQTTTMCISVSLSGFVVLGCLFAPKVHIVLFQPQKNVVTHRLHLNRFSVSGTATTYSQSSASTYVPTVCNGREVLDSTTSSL
Chain of rat mGlu5 (P31424 21-1203): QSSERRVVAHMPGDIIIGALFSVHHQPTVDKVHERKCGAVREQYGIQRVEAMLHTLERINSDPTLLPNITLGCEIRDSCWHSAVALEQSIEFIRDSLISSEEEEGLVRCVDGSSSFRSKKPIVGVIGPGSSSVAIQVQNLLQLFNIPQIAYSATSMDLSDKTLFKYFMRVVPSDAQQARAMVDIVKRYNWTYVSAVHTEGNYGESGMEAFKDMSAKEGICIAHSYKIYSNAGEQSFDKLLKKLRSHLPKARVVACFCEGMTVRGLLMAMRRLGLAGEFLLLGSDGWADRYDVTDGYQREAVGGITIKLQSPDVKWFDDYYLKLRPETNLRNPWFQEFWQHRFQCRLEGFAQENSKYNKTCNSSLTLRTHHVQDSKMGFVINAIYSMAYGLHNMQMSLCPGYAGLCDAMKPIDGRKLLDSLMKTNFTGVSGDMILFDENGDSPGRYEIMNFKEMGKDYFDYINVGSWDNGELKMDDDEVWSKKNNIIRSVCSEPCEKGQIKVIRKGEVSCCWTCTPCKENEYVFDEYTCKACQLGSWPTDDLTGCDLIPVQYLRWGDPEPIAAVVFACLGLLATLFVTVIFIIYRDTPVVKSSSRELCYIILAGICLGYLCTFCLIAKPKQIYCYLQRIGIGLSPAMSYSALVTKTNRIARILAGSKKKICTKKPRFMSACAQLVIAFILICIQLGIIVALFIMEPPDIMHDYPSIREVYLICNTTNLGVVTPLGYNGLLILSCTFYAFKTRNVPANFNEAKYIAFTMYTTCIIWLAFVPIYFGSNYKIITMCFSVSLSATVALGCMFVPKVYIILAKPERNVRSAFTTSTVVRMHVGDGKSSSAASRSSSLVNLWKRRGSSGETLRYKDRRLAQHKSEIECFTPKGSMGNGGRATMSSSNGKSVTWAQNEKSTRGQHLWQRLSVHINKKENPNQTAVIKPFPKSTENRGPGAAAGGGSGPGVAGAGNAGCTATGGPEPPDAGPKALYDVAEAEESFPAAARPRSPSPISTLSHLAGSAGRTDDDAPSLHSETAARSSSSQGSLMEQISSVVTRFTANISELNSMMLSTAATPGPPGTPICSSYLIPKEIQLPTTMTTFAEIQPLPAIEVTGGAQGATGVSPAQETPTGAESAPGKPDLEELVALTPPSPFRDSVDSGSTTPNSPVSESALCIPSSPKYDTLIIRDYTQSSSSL

Structure (SMILES) | IC50 (rat mGlu3) [nM] | remaining activity at 30 µM (rat mGlu3) [%] | IC50 (rat mGlu2) [nM] | EC50 (rat mGlu5; [1]) [nM] | activity at 30 µM (rat mGlu5; [2]) [%] | EC50 (rat mGlu5) [nM] | IC50 (rat mGlu5; noted as weak NAM, glutamate EC80, read-out: rat mGlu5 EC50 or IC50) [nM] | activity at 30 µM (rat mGlu5; noted as weak NAM, response at 30 μM test compound) [%]
O=c1cc(OCCOc2ccc(F)cc2)ccn1-c1ccc(F)cc1 [Compound 32, 4-(2-(4-fluorophenoxy)ethoxy)-1-(4-fluorophenyl)pyridin-2(1H)-one] | 1050 | -0.56 | > 30000 | 1500 | 94.1 |  |  | 
O=c1cc(OCCOc2ccccc2)ccn1-c1cccc(F)c1 [Compound 19, 1-(3-fluorophenyl)-4-(2-phenoxyethoxy)pyridin-2(1H)-one] | 434 | 2.01 | > 30000 |  | 88 | 1970 |  | 
N#Cc1cccc(OCCOc2ccn(-c3ccc(F)cc3)c(=O)c2)c1 [Compound 41, 3-(2-((1-(4-fluorophenyl)-2-oxo-1,2-dihydropyridin-4-yl)oxy)ethoxy)benzonitrile] | 715 | 0.13 | > 30000 |  |  |  | > 10000 | 29.1
N#Cc1cccc(-n2ccc(OCCOc3ccccc3)cc2=O)c1 [Compound 22, 3-(2-oxo-4-(2-phenoxyethoxy)pyridin-1(2H)-yl)benzonitrile] | 559 | 1.16 | > 30000 | 6020 | 87 |  |  | 
O=c1cc(OCCOc2ccccc2)ccn1-c1ccc(F)c(F)c1 [Compound 20, 1-(3,4-difluorophenyl)-4-(2-phenoxyethoxy)pyridin-2(1H)-one] | 323 | 1.63 | > 30000 |  | 91 | 344 |  | 
N#Cc1cc(F)cc(-n2ccc(OCCOc3ccccc3)cc2=O)c1 [Compound 23, 3-fluoro-5-(2-oxo-4-(2-phenoxyethoxy)pyridin-1(2H)-yl)benzonitrile] | 522 | 3.44 | > 30000 | 1310 | 26.8 |  |  | 
O=c1cc(OCCOc2ccccc2)ncn1-c1ccc(F)cc1 [Compound 28, 3-(4-Fluorophenyl)-6-(2-phenoxyethoxy)pyrimidin-4(3H)-one] | 1270 | 10.1 | > 30000 | 1220 | 89.8 |  |  | 
O=c1cc(OCCOc2ccc(Cl)cc2)ccn1-c1ccc(F)cc1 [Compound 39, 4-(2-(4-chlorophenoxy)ethoxy)-1-(4-fluorophenyl)pyridin-2(1H)-one] | 634 | 1.56 | > 30000 | 10000 | 81.1 |  |  | 
O=c1cc(OCCOc2ccccc2)ccn1-c1ccc(F)cc1 [Compound 18, 1-(4-Fluorophenyl)-4-(2-phenoxyethoxy)pyridin-2(1H)-one] | 725 ± 227 | 1.45 ± 0.14 | > 30000 |  | 97.3 | 567 |  | 
O=c1cc(OCCOc2ccc(F)nc2)ccn1-c1ccc(F)cc1 [Compound 45, 1-(4-fluorophenyl)-4-(2-((6-fluoropyridin-3-yl)oxy)ethoxy)pyridin-2(1H)-one] | 701 | 0.88 | > 30000 | > 10000 | 35.5 |  |  | 
O=c1cc(OCCOc2ccccc2F)ccn1-c1ccc(F)cc1 [Compound 30, 4-(2-(2-fluorophenoxy)ethoxy)-1-(4-fluorophenyl)pyridin-2(1H)-one] | 897 | 2.48 | > 30000 | 1870 | 92.8 |  |  | 
CC(COc1ccccc1)Oc1ccn(-c2ccc(F)cc2)c(=O)c1 (stereo not drawn) [Compound 5, 1-(4-fluorophenyl)-4-((1-phenoxypropan-2-yl)oxy)pyridin-2(1H)-one] | 1160 | 1.6 | > 30000 | > 10000 | 42.5 |  |  | 
CC(COc1ccn(-c2ccc(F)cc2)c(=O)c1)Oc1ccccc1 (stereo not drawn) [Compound 1, 1-(4-Fluorophenyl)-4-(2-phenoxypropoxy)pyridin-2(1H)-one] | 728 | 0.69 | > 30000 | > 30000 |  |  |  | 
N#Cc1ccnc(OCCOc2ccn(-c3ccc(F)cc3)c(=O)c2)c1 [Compound 57, 2-(2-((1-(4-fluorophenyl)-2-oxo-1,2-dihydropyridin-4-yl)oxy)ethoxy)isonicotinonitrile] | 753 | -0.4 | > 30000 | > 10000 | 38.7 |  |  | 
